Measured values taken from US6492426B1, “Use of 1-aminoindan derivatives for treatment of mania in bipolar mood disorder” (priority 1999, dated 2002).
Values joined by “and” are separate entries in the source; they are usually repeats but may differ in a detail not shown here. Identical values can stand only once.

System: amphetamine-induced hyperactivity in rats
Assay: amphetamine-induced hyperactivity model of mania in rats (automated activity monitors)
Format: in vivo, Sprague Dawley rats
Conditions: for Effect on activity levels of rats (summary): amphetamine-treated rats; for Anti-manic potential from the tested model (conclusion): based on the tested model and doses; for Locomotor activity, 20 min, mean / Vertical activity, 20 min, mean / Locomotor activity, 30 min, mean / Vertical activity, 30 min, mean / Locomotor activity, 10 min, mean / Vertical activity, 10 min, mean / Locomotor activity, 20-10 min, mean / Vertical activity, 20-10 min, mean / Locomotor activity, 30-20 min, mean / Vertical activity, 30-20 min, mean: group mean n=10; for Locomotor activity, 20 min, mean / Vertical activity, 20 min, mean / Locomotor activity, 30 min, mean / Vertical activity, 30 min, mean / Locomotor activity, 10 min, mean / Vertical activity, 10 min, mean / Locomotor activity, 20-10 min, mean / Vertical activity, 20-10 min, mean / Locomotor activity, 30-20 min, mean / Vertical activity, 30-20 min, mean / Locomotor activity, 10 min / Locomotor activity, 20 min / Vertical activity, 20 min / Locomotor activity, 30 min / Vertical activity, 30 min / Vertical activity, 10 min / Locomotor activity, 20-10 min / Vertical activity, 20-10 min / Locomotor activity, 30-20 min / Vertical activity, 30-20 min: 75 mg/kg IP twice, amphetamine 0.5 mg/kg s.c.; for Locomotor activity, 20 min, mean / Vertical activity, 20 min, mean / Locomotor activity, 20 min / Vertical activity, 20 min: cumulative to 20 min; for Locomotor activity, 30 min, mean / Vertical activity, 30 min, mean / Locomotor activity, 30 min / Vertical activity, 30 min: cumulative to 30 min; for Locomotor activity, 10 min, mean / Vertical activity, 10 min, mean / Locomotor activity, 10 min / Vertical activity, 10 min: first 10 min; for Locomotor activity, 20-10 min, mean / Vertical activity, 20-10 min, mean / Locomotor activity, 20-10 min / Vertical activity, 20-10 min: second 10 min interval; for Locomotor activity, 30-20 min, mean / Vertical activity, 30-20 min, mean / Locomotor activity, 30-20 min / Vertical activity, 30-20 min: third 10 min interval; for Locomotor activity, 10 min / Locomotor activity, 20 min / Vertical activity, 20 min / Locomotor activity, 30 min / Vertical activity, 30 min / Vertical activity, 10 min / Locomotor activity, 20-10 min / Vertical activity, 20-10 min / Locomotor activity, 30-20 min / Vertical activity, 30-20 min: individual rat; for Locomotor activity, 20-10 min / Vertical activity, 20-10 min / Locomotor activity, 30-20 min / Vertical activity, 30-20 min: non cumulative
Description: Evaluation of possible anti-bipolar effects of compounds 1 to 4 was effected by an amphetamine-induced hyperactivity model of mania in rats. Each of the compounds was examined in a separate experiment and compared with a control group, treated with the same dose of amphetamine.
Twenty Sprague Dawley rats, weighing 200-250 g served for each of the four (4) experiments. Rats were housed in a colony room with constant temperature (22° C.), 12 h light/dark cycle and free access to food and water. Each experiment consisted of two groups (n=10 per group), one group was treated with the compound (1 to 4) and the other with vehicle solution. In experiments 1-4, the drugs were administered intraperitoneally (IP). All experimental procedures were conducted during the light phase of the light/dark cycle.
Amphetamine (0.5 mg/kg, sub-cutaneous (s.c.), diluted in de-ionized water) was injected into all rats (both groups of each experiment) immediately prior to behavioral testing. In experiments 1 to 4, compounds (R)-N-acetyl aminoindan (1); (S)-N-indanyl glycinamide HCl (2); (rac)-N-(2-aminoacetyl)-1-aminoindan HCl (3); and (S)-N-formyl aminoindan (4) were injected twice intraperitoneally (IP) at a dose of 75 mg/kg, 19 h and 3 h prior to behavioral testing in experiments. All compounds were suspended in a 5% methyl cellulose solution. The vehicle solution was administered to the control animals.
Immediately after amphetamine injection, rats were placed in automated activity monitors and their activity levels were scored every 10 minutes in the 30 minute time span for experiments 1 to 4. Activity scores included separate measurements of horizontal (locomotion) and of vertical (rearing) activity.
Repeated ANOVA measurements were used to examine the effects of compounds 1 to 4 on locomotor and on vertical activity. One factor measured the treatment of the rats using compounds 1 to 4 or the control vehicle; the repeated measure factor was time (three 10 minute intervals). Post hoc LSD (least significant difference) tests were used to determine whether significant differences occurred in different time periods, where relevant.

[1] = 75 mg/kg IP, 19 h and 3 h before testing, result in words

Row | Structure (SMILES) | Effect on amphetamine-induced locomotor activity versus control (ANOVA) [1] | Effect on activity levels of rats (summary) (75 mg/kg IP, result in words) | Anti-manic potential from the tested model (conclusion) (result in words) | Locomotor activity, 20 min, mean [counts] | Vertical activity, 20 min, mean [counts] | Locomotor activity, 30 min, mean [counts] | Vertical activity, 30 min, mean [counts] | Locomotor activity, 10 min, mean [counts] | Vertical activity, 10 min, mean [counts] | Locomotor activity, 20-10 min, mean [counts] | Vertical activity, 20-10 min, mean [counts] | Locomotor activity, 30-20 min, mean [counts] | Vertical activity, 30-20 min, mean [counts] | other results
1 | Cl.NCC(=O)NC1CCc2ccccc21 (racemic) [Compound 3, (rac)-N-(2-aminoacetyl)-1-aminoindan HCl] | significantly reduced locomotor activity | reduced the activity levels | show anti-manic potential | 1037 | 32 | 1397.4 | 48.3 | 494.4 | 23.1 | 542.6 | 8.9 | 360.4 | 16.3 | Effect on amphetamine-induced vertical activity versus control (ANOVA) [1]: similar, albeit non-significant, effect; Locomotor activity, 10 min (19 h and 3 h before testing, HCl): 379 counts and 525 counts and 338 counts and 553 counts and 449 counts and 349 counts and 584 counts and 614 counts and 537 counts and 616 counts; Locomotor activity, 20 min (HCl): 1214 counts and 1196 counts and 621 counts and 1303 counts and 862 counts and 663 counts and 1104 counts and 1349 counts and 1095 counts and 963 counts; Vertical activity, 20 min (HCl): 0 counts and 33 counts and 11 counts and 91 counts and 26 counts and 5 counts and 66 counts (2×) and 1 counts and 21 counts; Locomotor activity, 30 min (HCl): 1678 counts and 1507 counts and 691 counts and 1619 counts and 1112 counts and 917 counts and 1576 counts and 1810 counts and 1758 counts and 1306 counts; Vertical activity, 30 min (HCl): 1 counts and 35 counts (2×) and 11 counts and 101 counts and 5 counts and 75 counts and 100 counts and 38 counts and 82 counts; Vertical activity, 10 min (HCl): 0 counts and 17 counts and 7 counts and 27 counts and 11 counts and 5 counts and 36 counts and 58 counts and 16 counts and 54 counts; Locomotor activity, 20-10 min (HCl): 835 counts and 671 counts and 283 counts and 750 counts and 413 counts and 314 counts and 520 counts and 735 counts and 558 counts and 347 counts; Vertical activity, 20-10 min (HCl): 0 counts (2×) and 16 counts and 4 counts and 64 counts and 15 counts and 30 counts and −57 counts and 5 counts and 12 counts; Locomotor activity, 30-20 min (HCl): 464 counts and 311 counts and 70 counts and 316 counts and 250 counts and 254 counts and 472 counts and 461 counts and 663 counts and 343 counts; Vertical activity, 30-20 min (HCl): 1 counts and 2 counts and 0 counts (2×) and 10 counts and 9 counts (2×) and 99 counts and 17 counts and 16 counts
2 | CC(=O)N[C@@H]1CCc2ccccc21 [Compound 1, (R)-N-acetyl aminoindan] | significantly reduced locomotion | reduced the activity levels | show anti-manic potential | 945.8 | 22.5 | 1395.6 | 33.8 | 545.3 | 14.2 | 400.5 | 8.3 | 449.8 | 11.3 | Locomotor activity, 10 min (19 h and 3 h before testing): 600 counts and 448 counts and 718 counts and 740 counts and 570 counts and 426 counts and 395 counts and 462 counts and 681 counts and 413 counts; Locomotor activity, 20 min: 930 counts and 677 counts and 1125 counts and 1026 counts and 1147 counts and 802 counts and 800 counts and 794 counts and 1361 counts and 796 counts; Vertical activity, 20 min: 34 counts and 12 counts (2×) and 18 counts and 29 counts and 37 counts and 28 counts and 11 counts and 39 counts and 5 counts; Locomotor activity, 30 min: 1436 counts and 1027 counts and 1653 counts and 1317 counts and 1776 counts and 1230 counts and 1053 counts and 1150 counts and 2064 counts and 1250 counts; Vertical activity, 30 min: 62 counts and 18 counts and 20 counts and 31 counts and 53 counts and 38 counts and 12 counts and 21 counts and 76 counts and 7 counts; Vertical activity, 10 min: 27 counts and 9 counts and 16 counts (2×) and 29 counts and 20 counts and 5 counts and 10 counts and 6 counts and 4 counts; Locomotor activity, 20-10 min: 330 counts and 229 counts and 407 counts and 286 counts and 577 counts and 376 counts and 405 counts and 332 counts and 680 counts and 383 counts; Vertical activity, 20-10 min: 7 counts (2×) and 3 counts and 2 counts and 0 counts and 17 counts and 12 counts and 1 counts (2×) and 33 counts; Locomotor activity, 30-20 min: 506 counts and 350 counts and 528 counts and 291 counts and 629 counts and 428 counts and 253 counts and 356 counts and 703 counts and 454 counts; Vertical activity, 30-20 min: 28 counts and 6 counts and 2 counts (3×) and 16 counts and 10 counts (2×) and 0 counts and 37 counts
